These results are taken from US9670227B2, “Thienopyrimidine derivatives, a process for their preparation and pharmaceutical compositions containing them” (LES LABORATOIRES SERVIER, priority 2013, dated 2017).

The structures appear in SMILES notation.

Sequence of Mcl-1 protein (Q07820 whole entry): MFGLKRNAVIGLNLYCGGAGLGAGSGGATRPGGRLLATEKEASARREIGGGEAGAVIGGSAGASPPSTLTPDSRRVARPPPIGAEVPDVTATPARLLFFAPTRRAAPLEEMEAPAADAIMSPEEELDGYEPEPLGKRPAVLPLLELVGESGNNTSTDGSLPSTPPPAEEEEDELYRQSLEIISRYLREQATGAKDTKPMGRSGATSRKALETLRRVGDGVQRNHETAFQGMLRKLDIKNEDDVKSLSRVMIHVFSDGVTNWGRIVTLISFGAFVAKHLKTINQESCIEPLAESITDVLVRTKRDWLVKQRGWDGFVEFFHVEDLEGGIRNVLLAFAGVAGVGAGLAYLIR

In the first assay the target is Mcl-1 protein (UniProtKB primary accession number: Q07820) (Homo sapiens, UniProt Q07820). Briefly: Inhibition of Mcl-1 by fluorescence polarisation, Method 1. The conditions noted are these: fluorescence polarisation test; Method 1, or Method 2 where the value is underlined (underlining not visible); read-out: IC50 (M) Mcl-1 FP. Format: binding. In a few lines:
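Binding was measured as fluorescence polarisation of a fluorescein-labelled ligand (1 nM) displaced from Mcl-1 (5 nM), both final. Compounds ran as 11-point series with final DMSO at 5%.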
On the technique in general: Polarisation of emitted light reports the rotation of a fluorescent probe.
Turning to `Cc1oc(=O)oc1COC(=O)C(Cc1ccccc1OCc1ccnn1C(C)(C)C)Oc1ncnc2sc(-c3ccc(F)cc3)c(-c3ccc(OCCN(C)C)c(Cl)c3C)c12` [Example 820, (5-methyl-2-oxo-1,3-dioxol-4-yl)methyl (2R)-3-{2-[(1-tert-butyl-1H-pyrazol-5-yl)methoxy]phenyl}-2-{[(5Sa)-5-{3-chloro-4-[2-(dimethylamino)ethoxy]-2-methylphenyl}-6-(4-fluorophenyl)thieno[2,3-d]pyrimidin-4-yl]oxy}propanoate], the concentration for half-maximal inhibition (IC50) (commonly the concentration at which inhibition is half-maximal) was 1.29e-08 M.
Same read-out and setting: the value for `COCC(=O)OC(C)OC(=O)[C@@H](Cc1ccccc1OCc1ccnc(-c2ccccc2OC)n1)Oc1ncnc2sc(-c3ccc(F)cc3)c(-c3ccc(OCCN4CCN(C)CC4)c(Cl)c3C)c12` (stereo partly drawn) [Example 864, 1-[(methoxyacetyl)oxy]ethyl (2R)-2-{[5-{3-chloro-2-methyl-4-[2-(4-methylpiperazin-1-yl)ethoxy]phenyl}-6-(4-fluorophenyl)thieno[2,3-d]pyrimidin-4-yl]oxy}-3-(2-{[2-(2-methoxyphenyl)pyrimidin-4-yl]methoxy}phenyl)propanoate] was 2.7e-08 M; that for `COCCOC(=O)C(Cc1ccccc1OCc1ccnc(-c2ccccc2OCCOC)n1)Oc1ncnc2sc(-c3ccc(F)cc3)c(-c3ccc(OCCN(C)C)c(Cl)c3C)c12` [Example 800, 2-methoxyethyl (2R)-2-{[(5Sa)-5-{3-chloro-4-[2-(dimethylamino)ethoxy]-2-methylphenyl}-6-(4-fluorophenyl)thieno[2,3-d]pyrimidin-4-yl]oxy}-3-[2-({2-[2-(2-methoxyethoxy)phenyl]pyrimidin-4-yl}methoxy)phenyl]propanoate] was 1.39e-06 M.

Still in this assay, the particulars now being: fluorescence polarisation test; Method 2 values are underlined in the patent (underlining not visible here); read-out: IC50 (M) Mcl-1 FP.
As to `Cc1c(-c2c(-c3ccc(F)o3)sc3ncnc(OC(Cc4ccccc4OCC4CCCO4)C(=O)O)c23)ccc(OCCN2CCN(C)CC2)c1Cl` [Example 150, (2R)-2-{[(5Sa)-5-{3-chloro-2-methyl-4-[2-(4-methylpiperazin-1-yl)ethoxy]phenyl}-6-(5-fluorofuran-2-yl)thieno[2,3-d]pyrimidin-4-yl]oxy}-3-{2-[(2R)-tetrahydrofuran-2-ylmethoxy]phenyl}propanoic acid], the 50% inhibitory concentration (IC50) came to 9.3e-09 M.
Still for that read-out and setting: the value for `Cc1c(-c2c(-c3ccc(F)o3)sc3ncnc(OC(Cc4ccccc4OCc4ccccn4)C(=O)O)c23)ccc(OCCN2CCN(C)CC2)c1Cl` (single isomer, unassigned) [Example 165] was 1.6e-06 M; that for `Cc1c(-c2c(-c3ccc(F)cc3)sc3ncnc(OC(Cc4ccccc4OCC4CCCO4)C(=O)O)c23)ccc(OCCN2CCN(C)CC2)c1Cl` [Example 2, (2R)-2-{[(5Sa)-5-{3-chloro-2-methyl-4-[2-(4-methylpiperazin-1-yl)ethoxy]phenyl}-6-(4-fluorophenyl)thieno[2,3-d]pyrimidin-4-yl]oxy}-3-{2-[(2R)-tetrahydrofuran-2-ylmethoxy]phenyl}propanoic acid] was 1.2e-08 M; that for `COc1ccccc1C[C@@H](Oc1ncnc2sc(-c3ccco3)c(-c3ccc(OCCN4CCN(C)CC4)c(F)c3C)c12)C(=O)O` (single isomer, unassigned) [Example 333] was 7.9e-07 M.
On the same count and under the same terms, the value for `Cc1c(-c2c(-c3ccc(F)o3)sc3ncnc(OC(Cc4ccccc4OCC(F)(F)F)C(=O)O)c23)ccc(OCCN2CCN(C)CC2)c1Cl` [Example 158, (2R)-2-{[(5Sa)-5-{3-chloro-2-methyl-4-[2-(4-methylpiperazin-1-yl)ethoxy]phenyl}-6-(5-fluorofuran-2-yl)thieno[2,3-d]pyrimidin-4-yl]oxy}-3-[2-(2,2,2-trifluoroethoxy)phenyl]propanoic acid] was 4.6e-09 M.

Still in this assay, the particulars now being: fluorescence polarisation; Method 1, or Method 2; read-out: IC50 (M) Mcl-1 FP.
Regarding `CCc1sc2ncnc(OC(Cc3ccccc3)C(=O)O)c2c1-c1ccc(OCCCn2ccnc2)c(Cl)c1C` [Example 403, (2R)-2-[((5Sa)-5-{3-chloro-4-[3-(1H-imidazol-1-yl)propoxy]-2-methylphenyl}-6-ethylthieno[2,3-d]pyrimidin-4-yl)oxy]-3-phenylpropanoic acid], the half-inhibitory concentration (IC50) amounted to 1.4e-08 M.
On the same count and under the same terms, the figure for `CCOC(=O)C(Cc1ccccc1OC)Oc1ncnc2sc(-c3ccco3)c(-c3ccc(OCCN4CCN(C)CC4)c(Cl)c3C)c12` [Example 627, ethyl (2R)-2-{[(5Sa)-5-{3-chloro-2-methyl-4-[2-(4-methylpiperazin-1-yl)ethoxy]phenyl}-6-(furan-2-yl)thieno[2,3-d]pyrimidin-4-yl]oxy}-3-(2-methoxyphenyl)propanoate] is 4.9e-07 M; for `COCCCc1ccccc1CC(Oc1ncnc2sc(-c3ccc(F)cc3)c(-c3ccc(OCCN4CCN(C)CC4)c(Cl)c3C)c12)C(=O)O` [Example 655, (2R)-2-{[(5Sa)-5-{3-chloro-2-methyl-4-[2-(4-methylpiperazin-1-yl)ethoxy]phenyl}-6-(4-fluorophenyl)thieno[2,3-d]pyrimidin-4-yl]oxy}-3-[2-(3-methoxypropyl)phenyl]propanoic acid] it is 2.6e-08 M; for `COc1ccccc1CC(Oc1ncnc2sc(-c3cccc(OC(F)(F)F)c3)c(-c3ccc(OCCN4CCN(C)CC4)c(Cl)c3C)c12)C(=O)O` [Example 555, (2R)-2-[((5Sa)-5-{3-chloro-2-methyl-4-[2-(4-methylpiperazin-1-yl)ethoxy]phenyl}-6-[3-(trifluoromethoxy)phenyl]thieno[2,3-d]pyrimidin-4-yl)oxy]-3-(2-methoxyphenyl)propanoic acid] it is 3.9e-07 M.
On the same count and under the same terms, the value for `CCc1sc2ncnc(OC(Cc3ccccc3OCC(F)(F)F)C(=O)O)c2c1-c1ccc(OCCN2CCN(C)CC2)c(Cl)c1C` [Example 454, (2R)-2-[((5Sa)-5-{3-chloro-2-methyl-4-[2-(4-methylpiperazin-1-yl)ethoxy]phenyl}-6-ethylthieno[2,3-d]pyrimidin-4-yl)oxy]-3-[2-(2,2,2-trifluoroethoxy)phenyl]propanoic acid] was 1.2e-08 M.
On the same count and under the same terms, the figure for `Cc1ccsc1-c1sc2ncnc(OC(Cc3ccccc3)C(=O)O)c2c1-c1ccc(OCCN2CCN(C)CC2)c(Cl)c1C` [Example 517, (2R)-2-{[(5Sa)-5-{3-chloro-2-methyl-4-[2-(4-methylpiperazin-1-yl)ethoxy]phenyl}-6-(3-methylthiophen-2-yl)thieno[2,3-d]pyrimidin-4-yl]oxy}-3-phenylpropanoic acid] is 5.1e-07 M; for `COc1ccccc1CC(Oc1ncnc2sc(-c3ccc(Br)o3)c(-c3ccc(OCCN4CCN(C)CC4)c(Cl)c3C)c12)C(=O)O` [Example 577, (2R)-2-{[6-(5-bromofuran-2-yl)-(5Sa)-5-{3-chloro-2-methyl-4-[2-(4-methylpiperazin-1-yl)ethoxy]phenyl}thieno[2,3-d]pyrimidin-4-yl]oxy}-3-(2-methoxyphenyl)propanoic acid] it is 7.6e-09 M.

The same assay, now with this note: partial inhibitors; @ 1 uM test compound.
Consider `COc1nccc(COc2ccccc2C[C@@H](Oc2ncnc3sc(-c4ccc(F)c(OCCN5CCN(C)CC5)c4)c(-c4ccc(OC)c(Cl)c4C)c23)C(=O)O)n1` [Example 697, (2R)-2-{[(5Ra)-5-(3-chloro-4-methoxy-2-methylphenyl)-6-{4-fluoro-3-[2-(4-methylpiperazin-1-yl)ethoxy]phenyl}thieno[2,3-d]pyrimidin-4-yl]oxy}-3-{2-[(2-methoxypyrimidin-4-yl)methoxy]phenyl}propanoic acid], for which the “percentage fluorescence polarisation inhibition, Mcl-1 FP” value was 45.55% @ 1 uM.

Staying with this assay, now noted: partial inhibitors; @ 10 uM test compound.
Take `CCOC(=O)C(Cc1ccccc1OCC1CCCO1)Oc1ncnc2sc(-c3ccc(F)cc3)c(-c3ccc(OCCN(C)C)c(Cl)c3C)c12` [Example 630, ethyl (2R)-2-{[(5Sa)-5-{3-chloro-4-[2-(dimethylamino)ethoxy]-2-methylphenyl}-6-(4-fluorophenyl)thieno[2,3-d]pyrimidin-4-yl]oxy}-3-{2-[(2R)-tetrahydrofuran-2-ylmethoxy]phenyl}propanoate]: the “percentage fluorescence polarisation inhibition, Mcl-1 FP” value was 27.95% @ 10 uM.

The assay is the same for the next values; noted with them: test compound at 10 uM; Method 1, or Method 2 where the value is underlined (underlining not visible).
On to `CCCCCCCCOC(=O)[C@@H](Cc1ccccc1OC)Oc1ncnc2sc(-c3ccc(F)cc3)c(-c3ccc(OC)c(Cl)c3C)c12` [Example 851, octyl (2R)-2-{[(5Sa)-5-(3-chloro-4-methoxy-2-methylphenyl)-6-(4-fluorophenyl)thieno[2,3-d]pyrimidin-4-yl]oxy}-3-(2-methoxyphenyl)propanoate], for which the “percentage fluorescence polarisation inhibition (Mcl-1 FP), partial inhibitors” value amounted to 7.85% @ 10 uM.
Same read-out and setting: the value for `CCOC(=O)[C@@H](Cc1ccccc1OC)Oc1ncnc2sc(-c3ccc(F)cc3)c(-c3ccc(OC)c(Cl)c3C)c12` [Example 842, ethyl (2R)-2-{[(5Sa)-5-(3-chloro-4-methoxy-2-methylphenyl)-6-(4-fluorophenyl)thieno[2,3-d]pyrimidin-4-yl]oxy}-3-(2-methoxyphenyl)propanoate] was 7.65% @ 10 uM; that for `CCCCCCCCOC(=O)[C@@H](Cc1ccccc1OCc1ccnc(-c2ccccc2OC)n1)Oc1ncnc2sc(-c3ccc(F)cc3)c(-c3ccc(OC)c(Cl)c3C)c12` [Example 847, octyl (2R)-2-{[(5Sa)-5-(3-chloro-4-methoxy-2-methylphenyl)-6-(4-fluorophenyl)thieno[2,3-d]pyrimidin-4-yl]oxy}-3-(2-{[2-(2-methoxyphenyl)pyrimidin-4-yl]methoxy}phenyl)propanoate] was 3.55% @ 10 uM; that for `COc1ccccc1-c1nccc(COc2ccccc2C[C@@H](Oc2ncnc3sc(-c4ccc(F)cc4)c(-c4ccc(OC)c(Cl)c4C)c23)C(=O)OCOC(=O)C(C)(C)C)n1` [Example 849, {[(2R)-2-{[(5Sa)-5-(3-chloro-4-methoxy-2-methylphenyl)-6-(4-fluorophenyl)thieno[2,3-d]pyrimidin-4-yl]oxy}-3-(2-{[2-(2-methoxyphenyl)pyrimidin-4-yl]methoxy}phenyl)propanoyl]oxy}methyl 2,2-dimethylpropanoate] was 61.35% @ 10 uM.
